{"source": "the kinase profiling compilation of Christmann-Franck et al. (2016)", "experiment_in_all_cases": "KINOMEscan competition binding", "conditions_in_all_cases": "compound 10.0 µM", "key": {"STK38L (human)": {"target": "STK38L (human) (UniProt Q9Y2H1)"}, "PRKACB (human)": {"target": "PRKACB (human) (UniProt P22694)"}, "PIP5K1C (human)": {"target": "PIP5K1C (human) (UniProt O60331)"}, "DCLK3 (human)": {"target": "DCLK3 (human) (UniProt Q9C098)"}, "NUAK1 (human)": {"target": "NUAK1 (human) (UniProt O60285)"}, "PRKAA2 (human)": {"target": "PRKAA2 (human) (UniProt P54646)"}, "DAPK2 (human)": {"target": "DAPK2 (human) (UniProt Q9UIK4)"}, "STK32B (human)": {"target": "STK32B (human) (UniProt Q9NY57)"}, "MAP3K4 (human)": {"target": "MAP3K4 (human) (UniProt Q9Y6R4)", "sequence (Q9Y6R4 whole entry, looked up)": "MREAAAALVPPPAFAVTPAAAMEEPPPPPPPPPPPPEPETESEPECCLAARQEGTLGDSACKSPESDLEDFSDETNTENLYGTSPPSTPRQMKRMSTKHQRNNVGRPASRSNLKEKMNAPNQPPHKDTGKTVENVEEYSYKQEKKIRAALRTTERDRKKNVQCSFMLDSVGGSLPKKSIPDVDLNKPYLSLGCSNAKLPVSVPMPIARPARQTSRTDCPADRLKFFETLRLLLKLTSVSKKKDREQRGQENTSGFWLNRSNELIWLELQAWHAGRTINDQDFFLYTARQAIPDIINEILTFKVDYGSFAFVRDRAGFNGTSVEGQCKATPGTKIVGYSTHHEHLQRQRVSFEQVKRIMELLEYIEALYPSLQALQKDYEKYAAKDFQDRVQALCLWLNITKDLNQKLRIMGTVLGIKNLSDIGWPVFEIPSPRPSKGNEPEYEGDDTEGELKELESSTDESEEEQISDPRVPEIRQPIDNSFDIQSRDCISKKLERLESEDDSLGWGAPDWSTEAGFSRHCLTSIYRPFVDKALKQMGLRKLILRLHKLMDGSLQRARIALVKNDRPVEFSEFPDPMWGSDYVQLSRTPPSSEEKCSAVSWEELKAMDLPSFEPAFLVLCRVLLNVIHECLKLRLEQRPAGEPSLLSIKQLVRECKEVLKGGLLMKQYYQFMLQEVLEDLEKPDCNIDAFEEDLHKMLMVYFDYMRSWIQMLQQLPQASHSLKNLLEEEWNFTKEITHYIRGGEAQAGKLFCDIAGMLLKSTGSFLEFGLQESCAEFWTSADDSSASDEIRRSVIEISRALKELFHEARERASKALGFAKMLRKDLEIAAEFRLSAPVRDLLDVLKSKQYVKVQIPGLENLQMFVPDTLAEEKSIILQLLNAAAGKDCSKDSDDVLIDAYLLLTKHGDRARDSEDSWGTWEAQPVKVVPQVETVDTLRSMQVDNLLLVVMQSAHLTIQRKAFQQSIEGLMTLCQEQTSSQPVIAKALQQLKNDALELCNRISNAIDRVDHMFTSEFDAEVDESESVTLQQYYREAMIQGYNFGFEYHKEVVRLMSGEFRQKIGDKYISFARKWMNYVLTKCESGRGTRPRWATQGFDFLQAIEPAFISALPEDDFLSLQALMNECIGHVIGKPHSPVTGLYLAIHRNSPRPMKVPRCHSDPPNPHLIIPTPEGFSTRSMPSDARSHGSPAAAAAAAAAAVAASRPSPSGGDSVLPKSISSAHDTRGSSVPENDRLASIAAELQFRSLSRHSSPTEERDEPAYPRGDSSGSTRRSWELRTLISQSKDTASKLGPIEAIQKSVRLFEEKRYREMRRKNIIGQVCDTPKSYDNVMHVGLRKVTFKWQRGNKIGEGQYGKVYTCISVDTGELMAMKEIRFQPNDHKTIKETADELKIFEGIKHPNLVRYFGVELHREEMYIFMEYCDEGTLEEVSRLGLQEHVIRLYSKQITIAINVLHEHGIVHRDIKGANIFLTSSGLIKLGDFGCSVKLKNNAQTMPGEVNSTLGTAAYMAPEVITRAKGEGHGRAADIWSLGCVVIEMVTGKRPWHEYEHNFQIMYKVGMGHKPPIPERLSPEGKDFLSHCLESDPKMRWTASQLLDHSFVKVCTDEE"}, "FER (human)": {"target": "FER (human) (UniProt P16591)"}, "PHKG1 (human)": {"target": "PHKG1 (human) (UniProt Q16816)"}, "TLK1 (human)": {"target": "TLK1 (human) (UniProt Q9UKI8)"}, "EPHA3 (human)": {"target": "EPHA3 (human) (UniProt P29320)", "sequence (P29320 whole entry, looked up)": "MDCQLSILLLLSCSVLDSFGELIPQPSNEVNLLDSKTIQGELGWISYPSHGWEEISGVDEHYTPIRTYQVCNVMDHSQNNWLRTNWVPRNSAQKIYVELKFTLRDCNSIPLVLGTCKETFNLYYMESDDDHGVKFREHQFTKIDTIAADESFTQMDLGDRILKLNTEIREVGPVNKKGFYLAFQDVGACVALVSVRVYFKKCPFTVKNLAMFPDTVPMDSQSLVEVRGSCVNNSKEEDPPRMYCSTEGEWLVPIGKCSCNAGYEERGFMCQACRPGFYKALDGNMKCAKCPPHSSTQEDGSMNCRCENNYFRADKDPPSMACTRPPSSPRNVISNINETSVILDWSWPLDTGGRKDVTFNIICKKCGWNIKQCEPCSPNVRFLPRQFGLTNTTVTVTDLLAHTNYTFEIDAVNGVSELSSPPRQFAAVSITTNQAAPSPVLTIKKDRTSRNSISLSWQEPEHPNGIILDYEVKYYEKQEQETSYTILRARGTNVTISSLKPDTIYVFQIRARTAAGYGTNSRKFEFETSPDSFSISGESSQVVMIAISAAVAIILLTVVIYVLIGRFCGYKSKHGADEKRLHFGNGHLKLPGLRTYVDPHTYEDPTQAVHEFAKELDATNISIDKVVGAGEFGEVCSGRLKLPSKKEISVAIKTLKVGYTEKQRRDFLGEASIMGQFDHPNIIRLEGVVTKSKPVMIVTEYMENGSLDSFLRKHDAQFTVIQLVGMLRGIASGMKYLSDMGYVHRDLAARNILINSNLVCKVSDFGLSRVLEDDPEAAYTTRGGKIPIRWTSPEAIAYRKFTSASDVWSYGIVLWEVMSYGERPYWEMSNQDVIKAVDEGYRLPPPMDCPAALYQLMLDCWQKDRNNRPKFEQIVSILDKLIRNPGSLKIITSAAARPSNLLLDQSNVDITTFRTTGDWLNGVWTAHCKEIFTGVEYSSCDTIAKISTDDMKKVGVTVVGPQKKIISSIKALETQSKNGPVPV"}, "EPHB6 (human)": {"target": "EPHB6 (human) (UniProt O15197)"}, "TEK (human)": {"target": "TEK (human) (UniProt Q02763)"}, "INSRR (human)": {"target": "INSRR (human) (UniProt P14616)"}, "ACVR2B (human)": {"target": "ACVR2B (human) (UniProt Q13705)"}, "IKBKE (human)": {"target": "IKBKE (human) (UniProt Q14164)"}, "MAPK15 (human)": {"target": "MAPK15 (human) (UniProt Q8TD08)"}, "ALK (human)": {"target": "ALK (human) (UniProt Q9UM73)"}, "ROS1 (human)": {"target": "ROS1 (human) (UniProt P08922)"}, "CDKL2 (human)": {"target": "CDKL2 (human) (UniProt Q92772)"}, "MAPK4 (human)": {"target": "MAPK4 (human) (UniProt P31152)"}, "MAP3K3 (human)": {"target": "MAP3K3 (human) (UniProt Q99759)"}, "CLK2 (human)": {"target": "CLK2 (human) (UniProt P49760)"}, "PRKG1 (human)": {"target": "PRKG1 (human) (UniProt Q13976)", "sequence (Q13976 whole entry, looked up)": "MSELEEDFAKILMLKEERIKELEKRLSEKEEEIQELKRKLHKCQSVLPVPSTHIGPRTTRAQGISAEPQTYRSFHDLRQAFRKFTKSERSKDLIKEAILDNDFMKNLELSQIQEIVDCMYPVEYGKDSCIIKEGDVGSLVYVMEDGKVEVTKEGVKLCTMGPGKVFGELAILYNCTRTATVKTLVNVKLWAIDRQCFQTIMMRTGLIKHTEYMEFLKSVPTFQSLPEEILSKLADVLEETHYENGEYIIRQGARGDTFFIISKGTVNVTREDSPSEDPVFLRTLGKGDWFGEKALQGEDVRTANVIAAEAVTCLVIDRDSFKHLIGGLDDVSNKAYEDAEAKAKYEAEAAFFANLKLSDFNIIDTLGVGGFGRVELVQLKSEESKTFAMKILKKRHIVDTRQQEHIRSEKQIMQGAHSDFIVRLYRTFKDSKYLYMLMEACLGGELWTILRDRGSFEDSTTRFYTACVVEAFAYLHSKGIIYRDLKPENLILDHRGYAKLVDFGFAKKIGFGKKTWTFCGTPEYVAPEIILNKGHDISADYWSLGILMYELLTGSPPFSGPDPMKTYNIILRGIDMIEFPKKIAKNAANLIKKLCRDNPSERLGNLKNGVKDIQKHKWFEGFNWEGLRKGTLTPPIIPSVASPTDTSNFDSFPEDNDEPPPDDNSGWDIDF"}, "FLT3 (human)": {"target": "FLT3 (human) (UniProt P36888)"}, "CDK4 CCND1 (human)": {"target": "CDK4 CCND1 (human) (UniProt P11802+P24385)"}, "PKN1 (human)": {"target": "PKN1 (human) (UniProt Q16512)"}, "RPS6KA6 KD1 (human)": {"target": "RPS6KA6 KD1 (human) (UniProt Q9UK32)"}, "PRKG2 (human)": {"target": "PRKG2 (human) (UniProt Q13237)"}, "WEE1 (human)": {"target": "WEE1 (human) (UniProt P30291)"}, "CSNK1A1L (human)": {"target": "CSNK1A1L (human) (UniProt Q8N752)"}, "EPHA2 (human)": {"target": "EPHA2 (human) (UniProt P29317)"}, "IRAK1 (human)": {"target": "IRAK1 (human) (UniProt P51617)"}, "CLK4 (human)": {"target": "CLK4 (human) (UniProt Q9HAZ1)"}, "MAP2K1 (human)": {"target": "MAP2K1 (human) (UniProt Q02750)", "sequence (Q02750 whole entry, looked up)": "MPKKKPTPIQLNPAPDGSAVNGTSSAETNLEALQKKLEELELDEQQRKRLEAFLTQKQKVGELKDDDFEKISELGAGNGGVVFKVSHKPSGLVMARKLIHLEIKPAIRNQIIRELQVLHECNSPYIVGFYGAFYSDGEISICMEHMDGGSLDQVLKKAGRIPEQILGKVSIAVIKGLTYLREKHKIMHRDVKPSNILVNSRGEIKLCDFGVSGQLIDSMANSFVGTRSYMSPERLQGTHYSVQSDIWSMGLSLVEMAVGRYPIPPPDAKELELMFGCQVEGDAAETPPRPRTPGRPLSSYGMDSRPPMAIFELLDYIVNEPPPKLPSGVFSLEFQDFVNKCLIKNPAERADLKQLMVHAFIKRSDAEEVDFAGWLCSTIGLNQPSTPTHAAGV"}, "TNK1 (human)": {"target": "TNK1 (human) (UniProt Q13470)"}, "MAPK13 (human)": {"target": "MAPK13 (human) (UniProt O15264)"}, "ERBB3 (human)": {"target": "ERBB3 (human) (UniProt P21860)", "sequence (P21860 whole entry, looked up)": "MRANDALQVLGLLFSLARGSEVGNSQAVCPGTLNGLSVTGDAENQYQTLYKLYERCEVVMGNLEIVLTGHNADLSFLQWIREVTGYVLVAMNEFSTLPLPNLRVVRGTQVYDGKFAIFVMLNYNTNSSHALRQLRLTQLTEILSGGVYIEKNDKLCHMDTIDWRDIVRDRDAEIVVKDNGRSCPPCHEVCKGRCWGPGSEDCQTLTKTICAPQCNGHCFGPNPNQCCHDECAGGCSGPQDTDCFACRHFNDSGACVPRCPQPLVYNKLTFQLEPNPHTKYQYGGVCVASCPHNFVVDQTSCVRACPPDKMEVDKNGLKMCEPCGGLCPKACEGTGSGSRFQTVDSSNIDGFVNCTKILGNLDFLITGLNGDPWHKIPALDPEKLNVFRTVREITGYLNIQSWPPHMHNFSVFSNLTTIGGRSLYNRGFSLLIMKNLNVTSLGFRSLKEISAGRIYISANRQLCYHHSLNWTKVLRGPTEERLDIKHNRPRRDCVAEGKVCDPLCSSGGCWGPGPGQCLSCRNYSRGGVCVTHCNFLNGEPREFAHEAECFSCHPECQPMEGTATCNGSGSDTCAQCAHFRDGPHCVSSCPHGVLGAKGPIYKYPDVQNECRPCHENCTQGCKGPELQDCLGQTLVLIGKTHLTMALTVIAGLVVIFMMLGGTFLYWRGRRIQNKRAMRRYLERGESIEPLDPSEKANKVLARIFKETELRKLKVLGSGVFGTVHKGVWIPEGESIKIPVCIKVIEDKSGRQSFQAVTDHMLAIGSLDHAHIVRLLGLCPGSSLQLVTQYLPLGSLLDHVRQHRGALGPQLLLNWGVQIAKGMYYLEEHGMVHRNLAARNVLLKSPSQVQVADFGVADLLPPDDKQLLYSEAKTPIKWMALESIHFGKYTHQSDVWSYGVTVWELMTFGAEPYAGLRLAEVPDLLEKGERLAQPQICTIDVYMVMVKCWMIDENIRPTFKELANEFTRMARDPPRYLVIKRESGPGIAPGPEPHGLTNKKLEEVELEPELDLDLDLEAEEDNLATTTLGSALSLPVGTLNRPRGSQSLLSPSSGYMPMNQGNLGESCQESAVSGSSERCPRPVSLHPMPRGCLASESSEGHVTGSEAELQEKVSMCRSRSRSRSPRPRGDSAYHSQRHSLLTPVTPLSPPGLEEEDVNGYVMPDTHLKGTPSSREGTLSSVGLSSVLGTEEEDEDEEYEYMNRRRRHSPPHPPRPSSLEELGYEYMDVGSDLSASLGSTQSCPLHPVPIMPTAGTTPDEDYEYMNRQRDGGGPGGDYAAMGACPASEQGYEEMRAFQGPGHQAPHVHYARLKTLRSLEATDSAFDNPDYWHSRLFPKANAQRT"}}}
{"compound": "CCN1CCN(Cc2ccc(NC(=O)c3ccc(C)c(/C=C/c4cnc5[nH]ccc5c4OC)c3)cc2C(F)(F)F)CC1", "values": [{"measurement": "kinase still bound, per cent of control", "setting": "STK38L (human)", "result": 35, "unit": "%"}, {"measurement": "kinase still bound, per cent of control", "setting": "PRKACB (human)", "result": 100, "unit": "%"}, {"measurement": "kinase still bound, per cent of control", "setting": "PIP5K1C (human)", "result": 84, "unit": "%"}, {"measurement": "kinase still bound, per cent of control", "setting": "DCLK3 (human)", "result": 3.2, "unit": "%"}, {"measurement": "kinase still bound, per cent of control", "setting": "NUAK1 (human)", "result": 100, "unit": "%"}, {"measurement": "kinase still bound, per cent of control", "setting": "PRKAA2 (human)", "result": 39, "unit": "%"}, {"measurement": "kinase still bound, per cent of control", "setting": "DAPK2 (human)", "result": 100, "unit": "%"}, {"measurement": "kinase still bound, per cent of control", "setting": "STK32B (human)", "result": 100, "unit": "%"}, {"measurement": "kinase still bound, per cent of control", "setting": "MAP3K4 (human)", "result": 66, "unit": "%"}, {"measurement": "kinase still bound, per cent of control", "setting": "FER (human)", "result": 27, "unit": "%"}, {"measurement": "kinase still bound, per cent of control", "setting": "PHKG1 (human)", "result": 100, "unit": "%"}, {"measurement": "kinase still bound, per cent of control", "setting": "TLK1 (human)", "result": 100, "unit": "%"}, {"measurement": "kinase still bound, per cent of control", "setting": "EPHA3 (human)", "result": 4.8, "unit": "%"}, {"measurement": "kinase still bound, per cent of control", "setting": "EPHB6 (human)", "result": 1.8, "unit": "%"}, {"measurement": "kinase still bound, per cent of control", "setting": "TEK (human)", "result": 0.1, "unit": "%"}, {"measurement": "kinase still bound, per cent of control", "setting": "INSRR (human)", "result": 100, "unit": "%"}, {"measurement": "kinase still bound, per cent of control", "setting": "ACVR2B (human)", "result": 62, "unit": "%"}, {"measurement": "kinase still bound, per cent of control", "setting": "IKBKE (human)", "result": 94, "unit": "%"}, {"measurement": "kinase still bound, per cent of control", "setting": "MAPK15 (human)", "result": 67, "unit": "%"}, {"measurement": "kinase still bound, per cent of control", "setting": "ALK (human)", "result": 51, "unit": "%"}, {"measurement": "kinase still bound, per cent of control", "setting": "ROS1 (human)", "result": 100, "unit": "%"}, {"measurement": "kinase still bound, per cent of control", "setting": "CDKL2 (human)", "result": 1.6, "unit": "%"}, {"measurement": "kinase still bound, per cent of control", "setting": "MAPK4 (human)", "result": 100, "unit": "%"}, {"measurement": "kinase still bound, per cent of control", "setting": "MAP3K3 (human)", "result": 1.4, "unit": "%"}, {"measurement": "kinase still bound, per cent of control", "setting": "CLK2 (human)", "result": 71, "unit": "%"}, {"measurement": "kinase still bound, per cent of control", "setting": "PRKG1 (human)", "result": 100, "unit": "%"}, {"measurement": "kinase still bound, per cent of control", "setting": "FLT3 (human)", "result": 0.95, "unit": "%"}, {"measurement": "kinase still bound, per cent of control", "setting": "CDK4 CCND1 (human)", "result": 74, "unit": "%"}, {"measurement": "kinase still bound, per cent of control", "setting": "PKN1 (human)", "result": 16, "unit": "%"}, {"measurement": "kinase still bound, per cent of control", "setting": "RPS6KA6 KD1 (human)", "result": 42, "unit": "%"}, {"measurement": "kinase still bound, per cent of control", "setting": "PRKG2 (human)", "result": 91, "unit": "%"}, {"measurement": "kinase still bound, per cent of control", "setting": "WEE1 (human)", "result": 100, "unit": "%"}, {"measurement": "kinase still bound, per cent of control", "setting": "CSNK1A1L (human)", "result": 100, "unit": "%"}, {"measurement": "kinase still bound, per cent of control", "setting": "EPHA2 (human)", "result": 1.7, "unit": "%"}, {"measurement": "kinase still bound, per cent of control", "setting": "IRAK1 (human)", "result": 26, "unit": "%"}, {"measurement": "kinase still bound, per cent of control", "setting": "CLK4 (human)", "result": 100, "unit": "%"}, {"measurement": "kinase still bound, per cent of control", "setting": "MAP2K1 (human)", "result": 74, "unit": "%"}, {"measurement": "kinase still bound, per cent of control", "setting": "TNK1 (human)", "result": 1.4, "unit": "%"}, {"measurement": "kinase still bound, per cent of control", "setting": "MAPK13 (human)", "result": 22, "unit": "%"}, {"measurement": "kinase still bound, per cent of control", "setting": "ERBB3 (human)", "result": 100, "unit": "%"}]}
